Data as given in patent publication US6583170B1, “2-Phenyl-1-[4-(amino-1-yl-alk-1-ynyl)-benzyl]-1H-indol-5-ol and estrogen formulations” (Wyeth, priority 1998, dated 2003).
Values joined by “and” are separate entries in the source; they are usually repeats but may differ in a detail not shown here. Equal entries are not always repeated.

Assays:
[1] = system: Ishikawa cells; assay: Ishikawa Cell Alkaline Phosphatase Assay; type: cell-based, human; conditions: compound alone; percent of response related to 1 nM 17β-estradiol; 48 h
Description: Ishikawa Cell Alkaline Phosphatase Assay Cell Maintenance and Treatment: […] Cells were treated for 48 h prior to assay. […] Sample population for at each dose was n=8. Alkaline Phosphatase Assay: […] Plates are placed at -80° C. for a minimum of 15 minutes. Plates are thawed at 37° C. followed by the addition of 150 μL of 0.1 M Tris-HCl, pH 9.8, containing 4 mM para-nitrophenylphosphate (pNPP) to each well (final concentration, 3 mM pNPP). Absorbance and slope calculations were made using the […] Application program (Bio-Tek Instruments, Inc., Winooski, VT.). […] Various compounds were assayed for estrogenic activity by the alkaline phosphatase method and corresponding ED50 values (95% C.I.) were calculated. The four listed in the following were used as as reference standards: A description of these methods is described by Holinka, […]., Kuramoto, H. and Gurpide, E. (1986) Effects of steroid hormones and antisteroids on alkaline phosphatase activity in human endometrial cancer cells (Ishikawa Line). Cancer Research, 46:2771-2774, and by […]. and […] simple and sensitive microtiter plate estrogen bioassay based on stimulation alkaline phosphatase in Ishikawa cells; […] Endocrinology, 6:2757-2762.

[2] = system: uterus wet weight, immature Sprague-Dawley rats; assay: Rat Uterotrophic/Antiuterotrophic Bioassay; type: in vivo; conditions: day 4; for uterine wet weight, 10 μG: 10 uG compound daily ip; for uterine wet weight, 10 μG / uterine wet weight, 100 μG / uterine wet weight, 100 μG + 1 μG 17β-estradiol: immature female rats; for uterine wet weight, 100 μG: 100 uG compound daily ip; for uterine wet weight, 100 μG + 1 μG 17β-estradiol: 100 uG compound + 1 uG 17β-estradiol daily ip
Description: Rat Uterotrophic/Antiuterotrophic Bioassay The estrogenic and antiestrogenic properties of the compounds were determined in an immature rat uterotrophic assay (4 day) that (as described previously by L. J. Black and R. L. Goode, Life Sciences, 26, 1453 (1980)). Immature Sprague-Dawley rats (female, 18 days old) were tested in groups of six. […] A small section of one horn was submitted for histology and the remainder used to isolate total RNA in order to evaluate complement component 3 gene expression.

[3] = biological target: T1, estrogen receptor (Homo sapiens, UniProt P03372); assay: In Vitro Estrogen Receptor Binding Assay ([3H]-17β-estradiol competition); conditions: RBA: 17β-estradiol=100; cytosol of CHO cells overexpressing the estrogen receptor
T1 construct: expressed in transfected cells; host or cells: CHO cells, ribosome-free cytosol
T1 sequence (P03372 1-595): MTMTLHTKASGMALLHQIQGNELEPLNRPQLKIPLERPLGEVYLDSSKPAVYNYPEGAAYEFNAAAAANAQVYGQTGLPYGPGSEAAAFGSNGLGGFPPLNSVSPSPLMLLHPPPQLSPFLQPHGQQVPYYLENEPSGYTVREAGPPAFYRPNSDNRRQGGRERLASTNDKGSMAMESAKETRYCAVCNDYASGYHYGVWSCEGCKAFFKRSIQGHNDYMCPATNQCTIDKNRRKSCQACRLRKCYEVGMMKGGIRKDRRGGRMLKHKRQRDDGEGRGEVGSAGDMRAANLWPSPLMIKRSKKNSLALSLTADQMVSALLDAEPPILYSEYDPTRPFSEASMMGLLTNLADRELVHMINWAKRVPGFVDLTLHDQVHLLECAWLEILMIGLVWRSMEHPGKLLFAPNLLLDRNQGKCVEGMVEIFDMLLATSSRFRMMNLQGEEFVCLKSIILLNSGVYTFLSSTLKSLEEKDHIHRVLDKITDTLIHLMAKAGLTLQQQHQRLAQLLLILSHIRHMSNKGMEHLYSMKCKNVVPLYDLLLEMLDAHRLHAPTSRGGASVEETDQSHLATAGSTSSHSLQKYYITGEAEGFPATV

Row | Structure (SMILES) | % Activation [1] | uterine wet weight, 10 μG [2] | uterine wet weight, 100 μG [2] | melting point | Estrogen Receptor Affinity (RBA) [3] | uterine wet weight, 100 μG + 1 μG 17β-estradiol [2] | uterine wet weight, 1 μG 17β-estradiol ([2]; 1 uG 17β-estradiol daily ip, positive control of each experiment)
1 | CC/C(=C(\c1ccccc1)c1ccc(OCCN(C)C)cc1)c1ccccc1 [Tamoxifen] | 0% | 69.6 mg | 71.4 mg |  |  |  | 
2 | Cc1c(-c2ccc(O)cc2)n(Cc2ccc(C#CCN3CCCC3)cc2)c2ccc(O)cc12 |  |  |  | 174 to 176 °C |  |  | 
3 | Cc1c(-c2ccc(O)cc2)n(Cc2ccc(C#CCN3CCCCC3)cc2)c2ccc(O)cc12 [Example 5, 2-(4-Hydroxy-phenyl)-3-methyl-1-[4-(3-piperidin-1-yl-prop-1-vinyl)-benzyl]-1H-indol-5-ol] |  | 55.6 mg | 71.3 mg |  | 23 | 66.8 mg | 
4 | C[C@]12CC[C@@H]3c4ccc(O)cc4CC[C@H]3[C@@H]1CC[C@@H]2O [17β-estradiol] |  |  |  |  |  |  | 1 μG 17β-estradiol = 98.2 mg and 1 μG 17β-estradiol = 90.2 mg and 1 μg 17β-estradiol = 82.8 mg
5 | O=C(c1ccc(OCCN2CCCCC2)cc1)c1c(-c2ccc(O)cc2)sc2cc(O)ccc12 [Raloxifene] | 5% | 47.5 mg | 43.2 mg |  |  |  | 
6 | Cc1c(-c2ccc(O)cc2)n(Cc2ccc(C#CCN(C)C)cc2)c2ccc(O)cc12 [Example 4, 2-(4-Hydroxy-phenyl)-3-methyl-1-[4-(3-N,N-dimethyl-1-yl-prop-1-ynyl)-benzyl]-1H-indol-5-ol] |  | 56.0 mg | 84.0 mg |  | 53 | 77.6 mg | 
